Assay [1] deals with T1, CD47 (membrane preparation from MEC-1 cells) (Homo sapiens, UniProt Q08722).
T1 construct: MEC-1 cell membrane preparation were biotinylated with the EZ-Link NHS-PEG4-Biotin kit; endogenous in cells; host or cells: MEC-1 cells (membrane preparation)
Description: Binding affinity by biolayer interferometry (Octet RED96) on biotinylated MEC-1 cell membrane preparation. The following applies: NPD = Non Pertinent Data; for Kd(μM)PR: Table 4, N-methyl peptides. The protocol:
The binding affinities of peptides for a membrane preparation from MEC-1 cells were measured by biolayer interferometry on an Octet RED96 System (Pall FortéBio Corp., Menlo Park, Calif.).
The binding affinities of peptides for a membrane preparation from MEC-1 cells were measured by biolayer interferometry on an Octet RED96 System (Pall FortéBio Corp., Menlo Park, Calif.). This system monitors interference of light reflected from two sources (an internal reflection surface and the liquid/solid interface of a fiber optic sensor) to measure the rate of binding of molecules to the biosensor surface.
MEC-1 cell membrane preparation were biotinylated with the EZ-Link NHS-PEG4-Biotin kit from Thermo-Scientific. Biotinylated membranes were then loaded onto SuperStreptavidin (SSA) biosensors (Pall FortéBio Corp.) at empirically determined concentrations.
In order to highlight the pharmacological properties of these peptides, a systematic SAR study by the development of a binding assay allowing to the assessment of the affinity of the 4N1K analogues to CD47 was initiated. […] An Ala-scan to identify the pharmacophores of 4N1K was implemented.
The binding affinities of peptides for a MEC-1 cells membrane preparation were measured by biolayer interferometry on an Octet RED96 System (Pall FortéBio Corp., Menlo Park, Calif.). This system monitors interference of light reflected from two sources (an internal reflection surface and the liquid/solid interface of a fiber optic sensor) to measure the rate of binding of molecules to the biosensor surface. MEC-1 cells membrane preparation is biotinylated with the EZ-Link NHS-PEG4-Biotin kit from Thermo-Scientific and excess biotin is removed using desalting column from Thermo-Scientific. Biotinylated membranes are then loaded onto SuperStreptavidin (SSA) biosensors (Pall FortéBio Corp.) at empirically determined concentrations. […] Typically, the biosensors were pre-equilibrated in PBS containing either biotinylated membranes or biocytine 100 μg/mL. Biosensors are then equilibrated in assay buffer for 10 min, brought to baseline in assay buffer for 60 sec. and transferred to wells containing peptide in dose-response (association for 120 sec. and dissociation for 300 sec.). The double reference with either membrane-loaded biosensors without any peptide dose-response or biocytine-loaded biosensors with each peptide dose-response were run in parallel for background signal double subtractions. Binding kinetics were calculated using the FortéBio Data Analysis v8.2 software.
In general terms: BLI is a label-free optical method that tracks binding on a fibre tip over time.

Another assay deals with MEC-1 cells. The experiment in a line: MEC-1 cell death (PCD) after 2 h peptide treatment. The note with it: for MEC-1 Cell Death (%) 2 h: Table 2, NPD = Non Pertinent Data; for MEC-1 Cell Death (%) 2 h, [peptides] = 200 μM: Table 3, 200 μM peptide; for Cell Death (MEC-1, 2 h): Table 4. Format: cell-based. As to the method:
Then the peptides structures were tested via NMR and X-ray. The peptides were also tested for their activity on MEC-1 and their KDs and Retention times on LCMS were determined.

The subject of assay [2] is B-chronic lymphocytic leukemia (CLL) primary cells. The following applies: WO 2013/182650, cited from earlier work.
Setting [3] is: Table 2, average of at least three independent experiments, read-out: Kd (μM) (OR).
The mark [4] stands for this setting: Table 3, average of two or more measurements, read-out: Kd.

Where two headings read alike, the source gives them in different places. Non-standard residues stand in square brackets, D forms with d. Residues, ends and D or L forms follow the SMILES beside them.

T1 sequence (Q08722 19-323): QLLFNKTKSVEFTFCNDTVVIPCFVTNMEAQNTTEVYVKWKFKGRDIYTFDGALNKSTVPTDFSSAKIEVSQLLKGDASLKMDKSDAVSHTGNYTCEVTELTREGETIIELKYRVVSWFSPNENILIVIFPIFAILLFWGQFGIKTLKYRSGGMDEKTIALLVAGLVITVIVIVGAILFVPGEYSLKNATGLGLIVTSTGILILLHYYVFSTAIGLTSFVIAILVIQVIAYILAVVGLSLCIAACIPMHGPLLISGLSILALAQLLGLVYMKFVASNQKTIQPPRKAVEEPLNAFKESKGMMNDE

A word on the Kd: it is the concentration at which binding is half-saturated. Take `CSCC[C@H](NC(=O)[C@@H](NC(=O)[C@@H](NC(=O)[C@H](Cc1ccc(O)cc1)NC(=O)[C@H](Cc1ccccc1)NC(=O)[C@H](CCCNC(=N)N)NC(=O)[C@H](N)CCCCN)C(C)C)C(C)C)C(=O)N[C@@H](Cc1c[nH]c2ccccc12)C(=O)N[C@@H](CCCCN)C(=O)N[C@H](CCCCN)C(=O)O` [PKHB1, reference compound]: in assay [1] (setting [3]), the Kd was found to be 43 ± 21 µM. Besides, the Kd in assay [1] (setting [4]) was determined as 43 ± 21 µM. Besides, in the assay with MEC-1 cells, the “MEC-1 Cell Death (%) 2 h” value is listed as 63%; the “MEC-1 Cell Death (%) 2 h, [peptides] = 200 μM” value came out at 63%; the “Cell Death (MEC-1, 2 h)” value was 78%. The “selective elimination of leukemic B-cells versus healthy B-lymphocytes” value in assay [2] is given as “specifically eliminates leukemic B-cells”.
`CSCC[C@H](NC(=O)[C@@H](NC(=O)[C@@H](NC(=O)[C@H](Cc1ccc(O)cc1)NC(=O)[C@H](Cc1ccccc1)NC(=O)[C@H](CCCNC(=N)N)NC(=O)[C@@H](N)CCCCN)C(C)C)C(C)C)C(=O)N[C@@H](Cc1c[nH]c2ccccc12)C(=O)N[C@@H](CCCCN)C(=O)N[C@@H](CCCCN)C(=O)O` [4N1K, reference compound]: in assay [1] (setting [3]), the Kd stood at 19 ± 1.6 µM. In assay [1] (setting [4]), the Kd was determined as 19 ± 1.6 µM. In the assay with MEC-1 cells, the “MEC-1 Cell Death (%) 2 h” value stood at 23% and the “MEC-1 Cell Death (%) 2 h, [peptides] = 200 μM” value worked out at 23%. Besides, the “selective elimination of leukemic B-cells versus healthy B-lymphocytes” value in assay [2] is reported as “specifically eliminates leukemic B-cells”. Also, in assay [2] (soluble peptide), the “induction of PCD” value is listed as “induces caspase-independent PCD”.
`CSCC[C@H](NC(=O)[C@@H](NC(=O)[C@H](C(C)C)N(C)C(=O)[C@H](Cc1ccc(O)cc1)NC(=O)[C@H](Cc1ccccc1)NC(=O)[C@H](CCCNC(=N)N)NC(=O)[C@H](N)CCCCN)C(C)C)C(=O)N[C@@H](Cc1c[nH]c2ccccc12)C(=O)N[C@@H](CCCCN)C(=O)N[C@H](CCCCN)C(=O)O` [PKT8, H-(D)K R F Y ψ(CONMe)V V M W K (D)K-OH]: in assay [1], the “Kd(μM)PR” value is recorded as “NPD”. For the same compound, in the assay on MEC-1 cells, the “Cell Death (MEC-1, 2 h)” value is recorded as 0%.
With `CSCC[C@H](NC(=O)[C@@H](NC(=O)[C@@H](NC(=O)[C@H](Cc1ccc(O)cc1)N(C)C(=O)[C@H](Cc1ccccc1)NC(=O)[C@H](CCCNC(=N)N)NC(=O)[C@H](N)CCCCN)C(C)C)C(C)C)C(=O)N[C@@H](Cc1c[nH]c2ccccc12)C(=O)N[C@@H](CCCCN)C(=O)N[C@H](CCCCN)C(=O)O` [PKT9, H-(D)K R F ψ(CONMe)Y V V M W K (D)K-OH], the “Kd(μM)PR” value in assay [1] is reported as “NPD”. For the same compound, the “Cell Death (MEC-1, 2 h)” value in the assay with MEC-1 cells is reported as 0%.
Turning to `CSCC[C@H](NC(=O)[C@@H](NC(=O)[C@H](C)NC(=O)[C@H](Cc1ccc(O)cc1)NC(=O)[C@H](Cc1ccccc1)NC(=O)[C@H](CCCNC(=N)N)NC(=O)[C@H](N)CCCCN)C(C)C)C(=O)N[C@@H](Cc1c[nH]c2ccccc12)C(=O)N[C@@H](CCCCN)C(=O)N[C@H](CCCCN)C(=O)O` [V5/A, kRFY(A)VMWKk] (H-[dK]RFYAVMWK[dK]-OH; N-terminus and C-terminus assumed), the “Kd (μM)” value in assay [1] (Table 3, average of two or more measurements) was “NPD”. In addition, the “MEC-1 Cell Death (%) 2 h, [peptides] = 200 μM” value in the assay on MEC-1 cells is listed as 12%.
